Measured values published in patent US20210196714A1, “COMPOSITIONS AND METHODS FOR TREATING DISORDERS CHARACTERIZED WITH ABERRANT RAS/MAPK SIGNALING” (Duke University, priority 2018, published 2021).
“Also recorded” adds a separate entry of the source.

Legend:
[1] = Mass spectrometry of compound exposure in zebrafish embryos; type: in vivo; conditions: for detection of compound in embryos by MS: bathing, 100 nM or 1 μM, five days
Protocol: FIG. 5: Successful delivery of small molecules into zebrafish embryos. (a) Experimental design and sample preparation for the mass spectrometry (MS) analysis of compound concentration. (b) Quantitative MS analysis results of compound exposure in embryos. The right-most two columns give the concentrations of each compound detected by MS in zebrafish, quantifying in vivo exposures resulting from egg water compound doses of 100 nM and 1 μM.
For this purpose, mass spectrometry (MS) was performed in embryos treated with each of compounds 2 and 8. Wild-type embryos were treated with 100 nM (the concentration used for the rescue experiments) or 1 μM (as a positive detection threshold given that the intracellular concentration of each compound is unknown at the beginning of the experiment). After five days of treatment, embryos were harvested and subjected to MS analysis (FIG. 5A).
WT EK embryos were transferred to a 12-well plate at the 8-cell stage and bathed in egg water containing 0.001% DMSO or 100 nM of each compound (n=30/condition). Embryos were incubated at 28° C.; egg water containing compound was refreshed every 24 hours until harvest. Compound exposure was assessed essentially as described (see, Berghmans, S. et al. J Pharmacol Toxicol Methods 58, 59-68 (2008)); larvae were anaesthetized on ice, washed once with fresh compound-free ice-cold egg water, washed once with ice-cold PBS, and then transferred to a microfuge tube and centrifuged briefly before removing all excess liquid. Samples were macerated using a plastic pestle and frozen at −20° C. prior to analysis. Mass spectrometry analysis was conducted at Covance Laboratories (Cary, N.C., USA). Briefly, the macerated larvae were diluted in 1 ml water/acetonitrile (50/50), sonicated for 3×10 s and vortexed. For all compounds, a control sample containing embryos exposed to 0.001% DMSO was analyzed as a control. Calibration curves were generated by spiking aliquots of control zebrafish homogenate (prepared as described above) with known amounts of compound 29 (N3521-4-2).

[2] = system: zebrafish kmt2d morphants; experiment: Jaw defect (MK-CH cartilage distance, Alcian blue) in kmt2d morphants; type: in vivo; conditions: for jaw defect, distance between MK and CH cartilages: 100 nM, 5 dpf
Protocol: To test the first criterion, the CE rescue paradigm was repeated four times by two different investigators, each using independent zebrafish adult stocks.
Morpholinos (MO) were obtained from Gene Tools (Gene Tools, LLC, Philomath, Oreg., USA) and have been described previously (see, Bogershausen, N. et al. J Clin Invest 125, 3585-99 (2015)); kmt2d-MO: 5′-[…]-3′(SEQ ID NO: 1) (5 ng); kdm6a-MO: 5′-[…] (SEQ ID NO: 2) (10 ng). kmt2d-MO and kdm6a-MO was injected into wild type (WT) Ekkwill (EK) zebrafish embryos obtained from natural matings at the 1-4 cell stage. CRISPR target sequences (rap1a: 5′-[…]-3′ (SEQ ID NO: 3) [120 pg], rap1b: 5′-[…]-3′ (SEQ ID NO: 4) [120 pg] (see, Bogershausen, N. et al. J Clin Invest 125, 3585-99 (2015)), and kmt2d: 5′-[…] (SEQ ID NO: 5) [50 pg]) were identified by crispr.mit.edu and cloned into pT7-gRNA (Addgene, Cambridge, USA) following the protocol described in http://www.addgene.org/crispr/Chen/. Guide (g)RNAs were synthesized using the T7 MEGAshortscript kit (ThermoFisher Scientific). An injection solution of gRNA plus 100 pg Cas9 protein (PNA Bio) was injected into wild type Ekkwill (EK) zebrafish embryos obtained from natural matings at the 1-cell stage. Embryos were treated with compound at the 8-cell stage. All compounds were dissolved in dimethyl sulfoxide (DMSO; 10 mM), and subsequently diluted with water to 100 μM. Using egg water, we then diluted the 100 μM solution to the concentration specific to each experiment in egg water. Embryos were incubated at 28.5° C. and egg water containing compound was replaced daily until phenotyping, mass spectrometry, or immunoblotting analysis.
For convergence and extension (CE) phenotyping, embryos were scored as described (see, Leitch, C. C. et al. Nat Genet 40, 443-8 (2008)) at the 8-10 somite stage, and images were captured using an AZ100 microscope and NIS Elements software (Nikon). To assess mandibular phenotypes, Alcian blue staining was used to stain cartilage structures in 5 dpf larvae as described (see, Chassaing, N. et al. J Med Genet 49, 373-9 (2012)). Stained larvae were imaged in glycerol using an SMZ745T stereomicroscope (Nikon). The distance between Meckel's (MK) and ceratohyal (CH) cartilages was measured on ventral bright field images with Image J (NIH). For brain cell proliferation assays, injected embryos were fixed in Dent's solution at 2 dpf. […] Fluorescence signal on embryo heads was imaged with the Nikon AZ100 microscope and DS-Qi1MC digital camera using […] Z-stacks to generate extended depth of focus images. Cell numbers were quantified using the ImageJ ICTN plugin (NIH). […]

Row | SMILES | detection of compound in embryos by MS [1] | jaw defect, distance between MK and CH cartilages [2] | exposure of inhibitor in embryos (MS quantitation) ([1]; 100 nM dose) | concentration at 5 days ([1]; EK (wild-type), zebrafish, whole embryo/larva homogenate, other: bathing in egg water containing compound, egg water dose 100 nM, read-out: effective in vivo exposure (MS)) | jaw defect, distance between MK and CH cartilages ([2]; listed as dmDf) | jaw rescue at dosages beyond 100 nM ([2]; dose response, above 100 nM up to 1 μM)
1 | CC[C@@H](CO)Nc1ncc(C)c(-c2c[nH]c(C(=O)N[C@H](CO)c3cccc(Cl)c3)c2)n1 [Compound 2, N-((S)-1-(3-chlorophenyl)-2-hydroxyethyl)-4-(2-(((S)-1-hydroxybutan-2-yl)amino)-5-methylpyrimidin-4-yl)-1H-pyrrole-2-carboxamide] | Detectable concentrations | ameliorates this defect; also recorded: rescue significantly | – | – | – | –
2 | CC(C)c1nc(-c2cccc(NS(=O)(=O)c3c(F)cccc3F)c2F)c(-c2ccnc(N)n2)s1 [Compound 8, desmethyl-Dabrafenib] | Detectable concentrations | ameliorates this defect; also recorded: rescue significantly | sub-nanomolar | 0.26 nM | able to rescue the jaw layout | higher dosages did not improve efficacy any further
